Earlier results on one compound are cited in US7452901B2, “Anti-cancer phosphonate analogs” (Gilead Sciences, Inc., priority 2003, dated 2008).

This series concerns the target T1, purine nucleotide phosphorylase (Homo sapiens, UniProt P00491).
T1 sequence (P00491 1-289): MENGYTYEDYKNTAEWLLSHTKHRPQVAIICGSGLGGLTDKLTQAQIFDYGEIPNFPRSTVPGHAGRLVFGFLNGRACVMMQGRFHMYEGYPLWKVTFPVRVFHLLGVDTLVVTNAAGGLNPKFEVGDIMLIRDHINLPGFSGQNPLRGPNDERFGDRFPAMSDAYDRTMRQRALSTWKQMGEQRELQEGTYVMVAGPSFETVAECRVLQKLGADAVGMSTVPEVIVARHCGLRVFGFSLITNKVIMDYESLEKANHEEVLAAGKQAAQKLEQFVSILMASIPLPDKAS
Conditions: disclosed at the ACS meeting (2000).

In the case of `Nc1nc2c([C@@H](CO)c3ccccc3F)c[nH]c2c(=O)[nH]1` [PNP-405], the 50% inhibitory concentration (IC50) was 20 nM.
